Biological target: T1, SLC6A14 (Homo sapiens, UniProt Q9UN76)
T1 construct: endogenous transporter in opened human intestinal organoids
T1 sequence (Q9UN76 1-642): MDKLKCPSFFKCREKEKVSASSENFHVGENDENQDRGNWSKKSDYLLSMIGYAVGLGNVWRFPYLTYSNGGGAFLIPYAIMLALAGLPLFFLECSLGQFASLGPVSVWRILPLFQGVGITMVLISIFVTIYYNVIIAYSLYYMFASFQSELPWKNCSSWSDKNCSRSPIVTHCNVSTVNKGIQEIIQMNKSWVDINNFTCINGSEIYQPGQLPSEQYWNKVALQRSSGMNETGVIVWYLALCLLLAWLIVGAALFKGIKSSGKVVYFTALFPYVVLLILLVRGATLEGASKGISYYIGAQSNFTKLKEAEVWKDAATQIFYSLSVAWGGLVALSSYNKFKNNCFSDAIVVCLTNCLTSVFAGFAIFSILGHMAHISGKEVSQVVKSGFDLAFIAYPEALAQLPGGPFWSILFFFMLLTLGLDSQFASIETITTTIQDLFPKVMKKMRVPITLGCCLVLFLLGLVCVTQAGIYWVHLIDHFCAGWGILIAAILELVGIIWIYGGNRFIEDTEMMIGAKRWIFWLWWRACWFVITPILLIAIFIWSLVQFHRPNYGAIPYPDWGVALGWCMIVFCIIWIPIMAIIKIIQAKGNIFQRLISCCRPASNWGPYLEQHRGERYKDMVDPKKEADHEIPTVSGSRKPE
Experiment: FLIPR membrane potential (AAC) assay, α-MT-sensitive electrogenic uptake at […]
Format: cell-based

N=C(N)NCCC[C@H](N)C(=O)O [L-Arg]
FLIPR membrane potential (AAC) assay, α-MT-sensitive electrogenic uptake at 1 mM: the addition of arginine (L-Arg) to the apical surface of these opened organoids evokes apical membrane depolarization
